Experimental data taken from ChEMBL document CHEMBL1201862, “PubChem BioAssay data set” (2004).
Calls of active or inactive are those of the source.

How the values were obtained:
Cytochrome P450 2C19 = Cytochrome P450 2C19 (Homo sapiens, UniProt P33261); test: Cytochrome panel assay with activity outcomes. Panel member name: p450-cyp2c19 Compounds with AC50 equal or less than 10 uM are considered active; format: functional
Cytochrome P450 3A4 = Cytochrome P450 3A4 (Homo sapiens, UniProt P08684);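 note: CYP3A4 tested as one member of a cytochrome P450 panel screen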
Sequence of Cytochrome P450 3A4 (P08684 whole entry): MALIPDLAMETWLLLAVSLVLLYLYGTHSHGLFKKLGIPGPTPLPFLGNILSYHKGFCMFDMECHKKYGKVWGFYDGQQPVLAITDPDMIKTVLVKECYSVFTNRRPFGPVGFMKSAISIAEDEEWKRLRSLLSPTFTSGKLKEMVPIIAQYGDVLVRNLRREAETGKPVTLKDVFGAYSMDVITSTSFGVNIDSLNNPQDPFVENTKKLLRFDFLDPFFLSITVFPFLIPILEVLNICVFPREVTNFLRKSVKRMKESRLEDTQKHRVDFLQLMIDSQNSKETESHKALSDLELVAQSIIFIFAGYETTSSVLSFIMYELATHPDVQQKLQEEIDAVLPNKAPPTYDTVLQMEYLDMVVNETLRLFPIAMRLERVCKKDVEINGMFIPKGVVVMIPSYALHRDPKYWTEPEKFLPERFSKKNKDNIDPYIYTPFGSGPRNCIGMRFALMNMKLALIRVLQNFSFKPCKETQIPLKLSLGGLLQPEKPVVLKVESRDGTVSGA

Cytochrome P450 1A2 = target: T1, Cytochrome P450 1A2 (Homo sapiens, UniProt P05177);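 note: PubChem cytochrome P450 panel assay, CYP1A2 panel member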
T1 sequence (P05177 whole entry): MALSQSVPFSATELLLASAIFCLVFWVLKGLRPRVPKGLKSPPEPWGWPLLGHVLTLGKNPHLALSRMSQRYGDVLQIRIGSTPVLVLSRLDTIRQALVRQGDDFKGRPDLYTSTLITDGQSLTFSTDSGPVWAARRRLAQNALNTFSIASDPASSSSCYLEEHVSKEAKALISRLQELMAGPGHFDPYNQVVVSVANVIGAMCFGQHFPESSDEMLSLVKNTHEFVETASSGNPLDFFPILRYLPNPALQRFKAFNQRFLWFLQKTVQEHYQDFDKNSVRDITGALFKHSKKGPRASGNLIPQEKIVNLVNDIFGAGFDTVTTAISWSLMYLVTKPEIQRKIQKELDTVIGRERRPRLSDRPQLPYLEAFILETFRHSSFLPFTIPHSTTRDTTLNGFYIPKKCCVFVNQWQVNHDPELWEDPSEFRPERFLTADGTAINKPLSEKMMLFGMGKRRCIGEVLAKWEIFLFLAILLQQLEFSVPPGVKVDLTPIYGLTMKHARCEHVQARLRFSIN

[1] = luciferase reporter signal suppression in cells – H4 neuroglioma cells, luminescence, dose response (AID 1990); format: functional, cell-based
[2] = viability of uninfected HEp-2 cells – cell-based, HTS, cytotoxicity control for RSV inhibitor project, dose response (AID 2410); format: functional; settings: human respiratory syncytial virus
[3] = Luminescence Cell-Based Dose Response HTS to Identify Inhibitors of 5'UTR Stem-Loop Driven Prion Protein mRNA Translation in H4 Neuroglioblastoma Cells. [Related pubchem assays: 1827 (Project Summary), 1813 (Primary HTS)]; format: functional
[4] = alpha-synuclein stem-loop luciferase translation blockers – H4 neuroglioma cells, luminescence, confirmation (AID 1988); format: functional, cell-based
[5] = target: T2, Corticotropin-releasing factor receptor 2/Corticotropin-releasing factor-binding protein (Homo sapiens, UniProt P24387+Q13324); test: activators of CRF receptor 2 with binding protein – uHTS hits, confirmation (AID 602473); format: functional; settings: read-out: EC50_Mean
T2 sequence (Q13324 whole entry): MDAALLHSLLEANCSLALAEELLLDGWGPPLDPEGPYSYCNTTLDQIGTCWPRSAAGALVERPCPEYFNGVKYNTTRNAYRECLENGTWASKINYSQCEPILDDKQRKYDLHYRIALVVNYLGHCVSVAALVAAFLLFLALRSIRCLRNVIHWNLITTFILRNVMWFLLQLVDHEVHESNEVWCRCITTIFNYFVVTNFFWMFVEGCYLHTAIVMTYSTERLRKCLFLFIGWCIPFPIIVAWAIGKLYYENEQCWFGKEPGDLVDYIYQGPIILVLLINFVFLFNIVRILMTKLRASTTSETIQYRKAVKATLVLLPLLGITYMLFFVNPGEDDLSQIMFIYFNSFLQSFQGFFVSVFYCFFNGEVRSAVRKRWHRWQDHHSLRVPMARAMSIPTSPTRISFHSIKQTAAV
T2 sequence (P24387 whole entry): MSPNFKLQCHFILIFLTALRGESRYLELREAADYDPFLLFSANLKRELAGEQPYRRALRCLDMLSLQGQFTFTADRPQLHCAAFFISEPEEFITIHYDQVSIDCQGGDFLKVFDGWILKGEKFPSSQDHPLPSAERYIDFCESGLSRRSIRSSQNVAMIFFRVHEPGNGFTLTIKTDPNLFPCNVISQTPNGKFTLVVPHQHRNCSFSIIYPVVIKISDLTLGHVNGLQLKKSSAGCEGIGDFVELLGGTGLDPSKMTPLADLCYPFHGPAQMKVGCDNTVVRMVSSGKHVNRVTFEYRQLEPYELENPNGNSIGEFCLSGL

[6] = Luminescence Cell-Based Dose Retest to Confirm Inhibitors of Cancer Stem Cells. [Related pubchem assays (depositor defined):AID2717, AID2721]; format: functional; settings: Homo sapiens
Cytochrome P450 2C9 = Cytochrome P450 2C9 (Homo sapiens, UniProt P11712)
Sequence of Cytochrome P450 2C9 (P11712 whole entry): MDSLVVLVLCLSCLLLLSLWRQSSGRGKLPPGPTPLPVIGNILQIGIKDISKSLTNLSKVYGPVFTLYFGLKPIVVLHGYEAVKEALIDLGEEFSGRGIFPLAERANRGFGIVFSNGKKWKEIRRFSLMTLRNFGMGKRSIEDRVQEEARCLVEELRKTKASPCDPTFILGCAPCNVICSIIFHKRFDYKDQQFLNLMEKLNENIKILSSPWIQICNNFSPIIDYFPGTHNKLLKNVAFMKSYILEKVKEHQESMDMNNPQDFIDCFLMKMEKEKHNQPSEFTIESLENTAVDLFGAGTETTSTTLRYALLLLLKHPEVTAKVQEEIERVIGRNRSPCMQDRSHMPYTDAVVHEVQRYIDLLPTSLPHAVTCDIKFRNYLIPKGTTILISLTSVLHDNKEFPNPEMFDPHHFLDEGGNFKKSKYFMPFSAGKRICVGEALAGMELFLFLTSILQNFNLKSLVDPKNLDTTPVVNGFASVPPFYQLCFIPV

Cytochrome P450 2D6 = Cytochrome P450 2D6 (Homo sapiens, UniProt P10635);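 note: CYP2D6 member of a cytochrome P450 panel assay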
Sequence of Cytochrome P450 2D6 (P10635 whole entry): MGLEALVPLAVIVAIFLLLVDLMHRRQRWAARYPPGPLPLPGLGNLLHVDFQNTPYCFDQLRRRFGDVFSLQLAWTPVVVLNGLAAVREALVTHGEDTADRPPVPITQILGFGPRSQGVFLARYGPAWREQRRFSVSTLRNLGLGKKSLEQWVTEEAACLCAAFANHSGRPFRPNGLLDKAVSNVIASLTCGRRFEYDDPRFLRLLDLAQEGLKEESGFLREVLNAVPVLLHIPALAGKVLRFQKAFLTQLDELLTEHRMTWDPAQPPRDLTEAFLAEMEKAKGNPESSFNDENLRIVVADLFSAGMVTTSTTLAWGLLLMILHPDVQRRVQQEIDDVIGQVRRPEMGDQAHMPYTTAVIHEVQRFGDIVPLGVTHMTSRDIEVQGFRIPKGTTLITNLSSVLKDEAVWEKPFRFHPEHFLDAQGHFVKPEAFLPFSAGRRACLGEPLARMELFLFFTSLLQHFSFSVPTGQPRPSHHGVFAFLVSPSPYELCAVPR

INS1 = test: INS-1E survival protection against cytokine death – cell-based, luminescence, retest, dose response (AID 449756); format: functional; settings: Rattus norvegicus;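 note: cell death triggered by IL-1 beta plus TNF-alpha plus IFN-gamma mixture; protective hits raise ATP signal compared with cytokine alone wells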
Streptokinase A = target: T3, Streptokinase A (Streptococcus pyogenes serotype M1, UniProt P10520); test: viability-normalized secreted streptokinase activity reduction – plasminogen activation absorbance, OD405, dose response (AID 1914); format: functional, Streptococcus pyogenes M1 GAS;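 note: secreted streptokinase activity via plasminogen activation per viability signal from cell pellet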
T3 sequence (P10520 whole entry): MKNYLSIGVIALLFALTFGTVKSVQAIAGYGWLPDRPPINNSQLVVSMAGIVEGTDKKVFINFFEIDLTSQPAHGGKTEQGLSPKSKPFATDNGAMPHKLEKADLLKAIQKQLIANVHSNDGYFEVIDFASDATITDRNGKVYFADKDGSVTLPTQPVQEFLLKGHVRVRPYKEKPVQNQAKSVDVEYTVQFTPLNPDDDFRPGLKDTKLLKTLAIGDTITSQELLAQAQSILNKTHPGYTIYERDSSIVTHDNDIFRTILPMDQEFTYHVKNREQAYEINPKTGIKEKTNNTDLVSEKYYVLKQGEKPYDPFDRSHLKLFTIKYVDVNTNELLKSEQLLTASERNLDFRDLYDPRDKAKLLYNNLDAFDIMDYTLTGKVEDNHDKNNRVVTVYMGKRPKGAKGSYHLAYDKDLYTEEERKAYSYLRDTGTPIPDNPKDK

[7] = test system: Streptococcus sp. 'group A'; test: Streptococcus pyogenes SK(-)GAS viability under kanamycin – luminescence, BacTiterGlo, confirmation, counter-screen for streptokinase expression inhibitor project, dose response (AID 1900); format: functional, organism-based
Streptococcus = test: GAS UMAA2166 growth inhibition – luminescence, BacTiterGlo, counter-screen for streptokinase expression inhibitor project, dose response (AID 1915); format: functional, organism-based;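 note: potency for reduction of bacterial viability or growth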

Sequence of Cytochrome P450 2C19 (P33261 whole entry): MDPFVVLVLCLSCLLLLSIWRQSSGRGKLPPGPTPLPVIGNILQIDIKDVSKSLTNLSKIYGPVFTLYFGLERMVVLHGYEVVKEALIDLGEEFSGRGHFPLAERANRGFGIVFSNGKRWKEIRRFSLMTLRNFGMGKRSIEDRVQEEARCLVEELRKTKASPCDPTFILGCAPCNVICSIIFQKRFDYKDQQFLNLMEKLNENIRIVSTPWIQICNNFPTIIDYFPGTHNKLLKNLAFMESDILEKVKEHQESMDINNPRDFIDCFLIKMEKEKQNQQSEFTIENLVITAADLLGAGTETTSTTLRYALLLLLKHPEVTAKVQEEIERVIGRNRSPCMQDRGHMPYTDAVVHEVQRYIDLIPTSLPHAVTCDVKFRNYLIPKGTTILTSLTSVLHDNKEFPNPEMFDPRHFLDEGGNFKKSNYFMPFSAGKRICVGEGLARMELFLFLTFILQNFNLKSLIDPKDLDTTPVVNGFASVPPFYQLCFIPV

## CN(C)c1ncc2nc(-c3cc(F)cc(F)c3)c(=O)n(Cc3cccs3)c2n1
Cytochrome P450 2C19
  AC50: inconclusive
Cytochrome P450 3A4
  AC50: 5.01 µM (inconclusive)
Cytochrome P450 1A2
  AC50: 1.58 µM (inconclusive)

## Cc1onc(-c2c(Cl)cccc2Cl)c1C(=O)Nc1nc(C(C)(C)C)cs1
[1]
  EC50: 14.4 µM (active)
[2]
  CC50: 17 µM (active)
[3]
  EC50: 16.7 µM (active)
[4]
  EC50: 12.2 µM (active)

## O=c1cc(CN2CCN(c3ccc(F)cc3)CC2)c2cc3c(cc2o1)CCCC3
Cytochrome P450 3A4
  AC50: 14.1 µM (inconclusive)

## S=C(CSc1ccccc1)Nc1cccc2ccccc12
Cytochrome P450 3A4
  AC50: 3.98 µM (inconclusive)

## COc1ccc(-c2nc3c(c(=O)c4ccccc4n3C)c(=O)n2Cc2ccccc2)cc1
[5]
  EC50: > 53 µM (inactive)

## CCNC(=S)N/N=C/c1cn(Cc2ccc(F)cc2)c2ccccc12
[6]
  AC50: 24 µM (active)

## C[C@@H](CSc1ccc(Br)cc1)CN1CC[C@H](C(C)(C)C)CCC1=O
[6]
  AC50: 0.315 µM (active)

## COc1ccc(C2=CC(c3ccco3)n3ncnc3N2)cc1 (stereo not given)
[5]
  EC50: 4.53 µM (active)

## Cc1nc(NCc2ccco2)c2c3c(sc2n1)CCC3
Cytochrome P450 2C9
  AC50: 12.6 µM (inconclusive)
Cytochrome P450 3A4
  AC50: 15.8 µM (inconclusive)
Cytochrome P450 2D6
  AC50: 25.1 µM (inconclusive)

## CCOc1cccc(/C=N/NC(=O)c2cc(C3CC3)[nH]n2)c1O
INS1
  AC50: 3.73 µM (active)
[6]
  AC50: 5.71 µM (active)

## COc1cc(C(=O)O/N=C(\N)Cc2ccc([N+](=O)[O-])cc2)cc(OC)c1OC
[1]
  EC50: 23.3 µM (active)
[3]
  EC50: > 120 µM (not active)
[4]
  EC50: 8.41 µM (active)

## Cc1oc(-c2ccccc2Cl)nc1C[S+]([O-])CC(=O)NCCc1ccccc1 (stereo not given)
[1]
  EC50: > 120 µM (not active)
[3]
  EC50: > 120 µM (not active)
[4]
  EC50: > 120 µM (not active)

## Cc1nc(C(=O)NNC(=O)c2c(-c3c(Cl)cccc3Cl)noc2C)cs1
INS1
  AC50: 6.91 µM (active)

## CCCCNCCOCCOc1ccc(C)cc1[N+](=O)[O-]
Cytochrome P450 2C9
  AC50: 3.16 µM (inconclusive)
Cytochrome P450 2C19; read-out: AC50
  AC50: 39.8 µM (inconclusive)
Cytochrome P450 3A4
  AC50: 14.1 µM (inconclusive)

## C[C@@]12CC[C@@H]3c4ccc(O)cc4C[C@H](CCCCCCCCC[S+]([O-])CCCC(F)(F)C(F)(F)F)[C@H]3[C@@H]1CC[C@@H]2O (stereo not given in full)
Cytochrome P450 3A4
  AC50: 1 µM (inconclusive)
Cytochrome P450 1A2
  AC50: 31.6 µM (inconclusive)

## CC(=O)NNC(=O)c1csc(Cc2c(Cl)sc3ccc(Cl)cc23)n1
[1]
  EC50: 11.5 µM (active)
[3]
  EC50: > 120 µM (not active)
[4]
  EC50: 10.3 µM (active)

## CN(C)C(=O)c1ccc(-c2nccc(NCc3ccccc3)n2)cc1
Cytochrome P450 3A4
  AC50: 20 µM (inconclusive)
Cytochrome P450 2D6
  AC50: 39.8 µM (inconclusive)
Cytochrome P450 1A2
  AC50: 15.8 µM (inconclusive)

## Cc1ccc(CCNC(=O)C2CC(c3ccccc3[N+](=O)[O-])=NO2)cc1 (stereo not given)
Cytochrome P450 2C9
  AC50: 39.8 µM (inconclusive)
Cytochrome P450 3A4
  AC50: 1.12 µM (inconclusive)

## Cc1ccc(N2C(=O)/C(=C\Nc3cc(C)on3)c3ccccc3C2=O)c(C)c1
[1]
  EC50: > 120 µM (not active)
[3]
  EC50: 19.6 µM (active)
[4]
  EC50: 12.9 µM (active)

## Cc1ccc(-c2noc(CN3CCN(C(c4ccccc4)c4ccccc4)CC3)n2)cc1
Cytochrome P450 3A4
  AC50: 35.5 µM (inconclusive)

## O=C(Nc1ccccc1)c1cc([N+](=O)[O-])ccc1Cl
Cytochrome P450 3A4
  AC50: 25.1 µM (inconclusive)
Cytochrome P450 2D6
  AC50: 10 µM (inconclusive)

## Cc1cccc(N/N=C(/C=O)C(=O)c2cccs2)c1
[6]
  AC50: 2.58 µM (active)

## COc1ccc(-c2sc3cc(OC)c(OC)cc3c2-c2ccc(O)cc2)cc1
[6]
  AC50: 1.58 µM (active)

## COC(=O)C/C=C\[C@@H](C)[C@@H](/C=N\O[C@@H]1O[C@H](COC(C)=O)[C@H](OC(C)=O)[C@H](OC(C)=O)[C@H]1OC(C)=O)OC
Cytochrome P450 3A4
  AC50: 6.31 µM (inconclusive)
Cytochrome P450 2D6
  AC50: 3.98 µM (inconclusive)

## Cc1ccc(-c2csc3ncnc(-n4cnc5ccccc54)c23)cc1
[6]
  AC50: 2.81 µM (active)

## CC(C)(C)OC(=O)N1CCC(CNC(=O)c2cccs2)CC1
INS1
  AC50: > 260 µM (inactive)

## CCN(CC)CC(=O)Nc1sc2c(c1C(=O)c1ccccc1OC)CCC2
[1]
  EC50: > 120 µM (not active)
[3]
  EC50: 16.2 µM (active)
[4]
  EC50: > 120 µM (not active)

## Cc1cnc(CNc2nc(-c3ccc(C(=O)N(C)C)cc3)nc3ccccc23)cn1
Cytochrome P450 3A4
  AC50: 15.8 µM (inconclusive)
Cytochrome P450 1A2
  AC50: 25.1 µM (inconclusive)

## Cc1ccccc1Nc1c(-c2ccccn2)nc2c(C)cccn12
INS1
  AC50: 6.81 µM (active)
Streptokinase A
  EC50: > 150 µM (not active)
[7]
  EC50: 19.3 µM (active)
Streptococcus
  EC50: > 150 µM (not active)

## CC1=CC(C)(C)N(S(=O)(=O)c2ccc(F)cc2)c2ccc(C)cc21
[6]
  AC50: 1.42 µM (active)

## Nc1nonc1-c1nc2ccccc2n1Cc1ccc(F)cc1Cl
Cytochrome P450 2C9
  AC50: 3.55 µM (inconclusive)
Cytochrome P450 3A4
  AC50: 14.1 µM (inconclusive)

## CCC1OC23CCCCC2C(C#N)(C(=N)O3)C1(C#N)C#N (stereo not given)
Cytochrome P450 2C9
  AC50: 14.1 µM (inconclusive)
Cytochrome P450 3A4
  AC50: 25.1 µM (inconclusive)

## CSc1nc2c(c(=O)n1Cc1ccccc1)SC(C)C2 (stereo not given)
[1]
  EC50: 25.7 µM (active)
[3]
  EC50: > 120 µM (not active)
[4]
  EC50: 84.8 µM (active)

## CCOC(=O)C1CCCCN1C(=O)CCc1c(C)nc2ncnn2c1C (stereo not given)
[1]
  EC50: 14.7 µM (active)
[3]
  EC50: > 120 µM (not active)
[4]
  EC50: 14.8 µM (active)
